The structures appear in SMILES notation.

One experiment relates to human venous whole blood, CD8 positive population (pERK). Kind of experiment: DGK human whole blood pERK assay. It is filed as cell-based. The conditions noted are these: Homo sapiens, CD8 positive, human whole blood pERK; read-out: DGK HWB. How it is done:
Assay 11: DGK Human Whole Blood pERK Assay
Human whole blood ERK phosphorylation assay was performed with human venous whole blood obtained from healthy donors (drawn with Heparin as anti-coagulant). […] Heparinized human whole blood was added to the compound plate at 9 μL per well and incubated for one hour at 37° C. in a humidified 95%, air/5% CO2 incubator. After one hour of compound incubation, 1 μL of human anti-CD3 antibody (in-house) in the presence of cross-linking antibody goat anti-mouse IgG (4 μg/mL) was added to the well at 1 μg/mL final concentration for stimulation of pathway and additionally incubated for 15 minutes at 37° C. […] Samples analyzed using the Intellicyt® iQue Screener PLUS. The pERK activation was quantitated by the percentage of pERK positive population within CD8 positive population.
Take `C[C@H]1CN(c2cc(=O)n(C)c3ccc(C#N)nc23)[C@@H](C)C[C@H]1Oc1cccc(Cl)c1` [Example 313, 8-((2S,4R,5S)-4-(3-chlorophenoxy)-2,5-dimethylpiperidin-1-yl)-5-methyl-6-oxo-5,6-dihydro-1,5-naphthyridine-2-carbonitrile]: the EC50 was 7.1 µM.

On to `C[C@H]1CN(c2cc(=O)n(C)c3ccc(C#N)nc23)[C@@H](C)C[C@H]1Oc1cccc(C#N)c1` [Example 314, 8-((2S,4R,5S)-4-(3-cyanophenoxy)-2,5-dimethylpiperidin-1-yl)-5-methyl-6-oxo-5,6-dihydro-1,5-naphthyridine-2-carbonitrile], for which the EC50 is 16 µM.

For `CC1CN(c2cc(=O)n(C)c3ccc(C#N)nc23)CCC1N(C)Cc1ccc(F)cc1` (single isomer, unassigned) [Example 327, -(4-((4-fluorobenzyl)(methyl)amino)-3-methylpiperidin-1-yl)-5-methyl-6-oxo-5,6-dihydro-1,5-naphthyridine-2-carbonitrile], the EC50 was 1.9 µM.

Take `CCO[C@H]1CN(c2cc(=O)n(C)c3ccc(C#N)nc23)CC[C@H]1Oc1cccc(C(F)(F)F)c1` (relative stereo) [Example 369, cis-8-(3-Ethoxy-4-(3-(trifluoromethyl)phenoxy)piperidin-1-yl)-5-methyl-6-oxo-5,6-dihydro-1,5-naphthyridine-2-carbonitrile]: the EC50 was determined as 0.62 µM.

For the compound `Cc1ccc(O[C@@H]2C[C@H](C)N(c3cc(=O)n(C)c4ccc(C#N)nc34)C[C@@H]2C)cc1` [Example 312, 8-((2S,4R,5S)-2,5-dimethyl-4-(p-tolyloxy)piperidin-1-yl)-5-methyl-6-oxo-5,6-dihydro-1,5-naphthyridine-2-carbonitrile], the EC50 was 6 µM.

The experiment is the same for the next values; noted with them: Homo sapiens, CD8 positive, read-out: DGK HWB (human whole blood pERK), human whole blood, CD8 positive population, anti-CD3 stimulation; top concentration 20 μM.
Consider `Cn1c(=O)cc(N2CC[C@@H](Oc3cccc(C(F)(F)F)c3)[C@H](OCCN3CCOCC3)C2)c2nc(C#N)ccc21` [Example 391, 5-methyl-8-((3R,4R)-3-(2-morpholinoethoxy)-4-(3-(trifluoromethyl)phenoxy)piperidin-1-yl)-6-oxo-5,6-dihydro-1,5-naphthyridine-2-carbonitrile], for which the EC50 turned out to be 17 µM.

The experiment is the same for the next values; noted with them: Homo sapiens, CD8 positive, read-out: DGK HWB, human whole blood pERK.
Turning to `CC[C@@H]1CN(c2nc(=O)n(C)c3ccc(Cl)nc23)[C@@H](C)C[C@H]1Oc1ccc(OC(C)C)cn1` [Example 300, 6-chloro-4-((2S,4R,5R)-5-ethyl-4-((5-isopropoxypyridin-2-yl)oxy)-2-methylpiperidin-1-yl)-1-methylpyrido[3,2-d]pyrimidin-2(1H)-one], the EC50 came out at 8.3 µM.

Consider `CC[C@@H]1CN(c2cc(=O)n(C)c3ccc(C#N)nc23)[C@H](C)C[C@H]1Oc1ccc(OC(C)C)cn1` [Example 297, 8-((2R,4R,5R)-5-ethyl-4-((5-isopropoxypyridin-2-yl)oxy)-2-methylpiperidin-1-yl)-5-methyl-6-oxo-5,6-dihydro-1,5-naphthyridine-2-carbonitrile], for which the EC50 is 0.68 µM.

Regarding `C[C@@H]1CC(Oc2cccc(C(F)(F)F)c2)[C@@H](C)CN1c1nc(=O)n(C)c2ccc(C#N)nc12` (stereo in doubt) [Example 251, 4-((2R,5S)-2,5-dimethyl-4-(3-(trifluoromethyl)phenoxy)piperidin-1-yl)-1-methyl-2-oxo-1,2-dihydropyrido[3,2-d]pyrimidine-6-carbonitrile], the EC50 turned out to be 1.8 µM.

As for `C[C@@H]1CN(c2nc(=O)n(C)c3ccc(C#N)nc23)[C@@H](C)CC1Oc1cccc(C(F)(F)F)c1` (stereo in doubt) [Example 252, 4-((2S,5R)-2,5-dimethyl-4-(3-(trifluoromethyl)phenoxy)piperidin-1-yl)-1-methyl-2-oxo-1,2-dihydropyrido[3,2-d]pyrimidine-6-carbonitrile], the EC50 came to 3.5 µM.

With `CC[C@@H]1CN(c2nc(=O)n(C)c3ccc(C#N)nc23)[C@H](C)C[C@@H]1Oc1ccc(OC(C)C)cn1` [Example 305, 4-((2R,4S,5R)-5-ethyl-4-((5-isopropoxypyridin-2-yl)oxy)-2-methylpiperidin-1-yl)-1-methyl-2-oxo-1,2-dihydropyrido[3,2-d]pyrimidine-6-carbonitrile], the EC50 worked out at 0.73 µM.

Regarding `CC[C@@H]1CN(c2cc(=O)n(C)c3ccc(C#N)nc23)[C@H](C)C[C@@H]1Oc1ccc(OC(C)C)cn1` [Example 298, 8-((2R,4S,5R)-5-ethyl-4-((5-isopropoxypyridin-2-yl)oxy)-2-methylpiperidin-1-yl)-5-methyl-6-oxo-5,6-dihydro-1,5-naphthyridine-2-carbonitrile], the EC50 was found to be 0.91 µM.

Take `CC[C@@H]1CN(c2nc(=O)n(C)c3ccc(C#N)nc23)[C@@H](C)C[C@H]1Oc1ccc(OC(C)C)cn1` [Example 301, 4-((2S,4R,5R)-5-ethyl-4-((5-isopropoxypyridin-2-yl)oxy)-2-methylpiperidin-1-yl)-1-methyl-2-oxo-1,2-dihydropyrido[3,2-d]pyrimidine-6-carbonitrile]: the EC50 turned out to be 11 µM.

For `CCO[C@H]1CN(c2cc(=O)n(C)c3ccc(C#N)nc23)CC[C@@H]1Oc1ccc(OC(C)C)nn1` [Example 375, 8-((3S,4S)-3-ethoxy-4-((6-isopropoxypyridazin-3-yl)oxy)piperidin-1-yl)-5-methyl-6-oxo-5,6-dihydro-1,5-naphthyridine-2-carbonitrile], the EC50 was 2.3 µM.

As to `CC(C)Oc1ccc(OC2C[C@@H](C)N(c3nc(=O)n(C)c4ccc(C#N)nc34)C[C@@H]2C)nc1` (stereo partly drawn) [Example 248, 4-((2R,5S)-4-((5-isopropoxypyridin-2-yl)oxy)-2,5-dimethylpiperidin-1-yl)-1-methyl-2-oxo-1,2-dihydropyrido[3,2-d]pyrimidine-6-carbonitrile], the EC50 was 0.74 µM.

With `CC[C@@H]1CN(c2cc(=O)n(C)c3ccc(C#N)nc23)[C@@H](C)C[C@H]1Oc1ccc(OC(C)C)cn1` [Example 296, 8-((2S,4R,5R)-5-ethyl-4-((5-isopropoxypyridin-2-yl)oxy)-2-methylpiperidin-1-yl)-5-methyl-6-oxo-5,6-dihydro-1,5-naphthyridine-2-carbonitrile], the EC50 is 13 µM.

The same experiment, now with this note: human whole blood pERK; read-out: DGK HWB.
For `CCO[C@H]1CN(c2cc(=O)n(C)c3ccc(C#N)nc23)CC[C@@H]1Oc1ccc2oc(C)nc2c1` [Example 356, 8-((3S,4S)-3-ethoxy-4-((2-methylbenzo[d]oxazol-5-yl)oxy)piperidin-1-yl)-5-methyl-6-oxo-5,6-dihydro-1,5-naphthyridine-2-carbonitrile], the EC50 was determined as 3.9 µM.

For the compound `CCO[C@H]1CN(c2cc(=O)n(C)c3ccc(C#N)nc23)CC[C@@H]1Oc1nc2ccccc2s1` [Example 374], the EC50 was found to be 20 µM.

`CCO[C@H]1CN(c2cc(=O)n(C)c3ccc(C#N)nc23)CC[C@H]1Oc1ccc(OC(C)C)cn1` (relative stereo) [Example 372, cis-8-(3-Ethoxy-4-((5-isopropoxypyridin-2-yl)oxy)piperidin-1-yl)-5-methyl-6-oxo-5,6-dihydro-1,5-naphthyridine-2-carbonitrile]: the EC50 came out at 18 µM.

On to `CCO[C@H]1CN(c2cc(=O)n(C)c3ccc(C#N)nc23)CC[C@@H]1Oc1ccccc1C(F)(F)F` [Example 346, 8-((3S,4S)-3-ethoxy-4-(2-(trifluoromethyl)phenoxy)piperidin-1-yl)-5-methyl-6-oxo-5,6-dihydro-1,5-naphthyridine-2-carbonitrile], for which the EC50 turned out to be 20 µM.

Take `CCO[C@H]1CN(c2cc(=O)n(C)c3ccc(C#N)nc23)CC[C@@H]1Oc1ccc2oc(C)nc2c1` [Example 355, 8-((3S,4S)-3-ethoxy-4-((2-methylbenzo[d]oxazol-5-yl)oxy)piperidin-1-yl)-5-methyl-6-oxo-5,6-dihydro-1,5-naphthyridine-2-carbonitrile]: the EC50 came out at 20 µM.

Staying with this experiment, now noted: human whole blood, CD8 positive population, anti-CD3 stimulation; top concentration 20 μM; read-out: DGK HWB (human whole blood pERK).
On to `CCO[C@H]1CN(c2cc(=O)n(C)c3ccc(C#N)nc23)CC[C@@H]1Oc1ccc(OC(C)C)cn1` (relative stereo) [Example 397, trans-8-(4-((5-Isopropoxypyridin-2-yl)oxy)-3-ethoxypiperidin-1-yl)-5-methyl-6-oxo-5,6-dihydro-1,5-naphthyridine-2-carbonitrile], for which the EC50 amounted to 0.14 µM.

As to `Cn1c(=O)cc(N2CC[C@@H](Oc3cccc(C(F)(F)F)c3)[C@H](OCC3CC3)C2)c2nc(C#N)ccc21` [Example 388, 8-((3R,4R)-3-(cyclopropylmethoxy)-4-(3-(trifluoromethyl)phenoxy)piperidin-1-yl)-5-methyl-6-oxo-5,6-dihydro-1,5-naphthyridine-2-carbonitrile], the EC50 turned out to be 20 µM.

The experiment is the same for the next values; noted with them: read-out: DGK HWB; human whole blood pERK.
In the case of `CC(C)Oc1ccc(OC2C[C@@H](C)N(c3nc(=O)n(C)c4ccc(C#N)nc34)C[C@@H]2C)nc1` (stereo partly drawn) [Example 249, 4-((2R,5S)-4-((5-isopropoxypyridin-2-yl)oxy)-2,5-dimethylpiperidin-1-yl)-1-methyl-2-oxo-1,2-dihydropyrido[3,2-d]pyrimidine-6-carbonitrile], the EC50 came to 0.49 µM.

As to `CCO[C@H]1CN(c2cc(=O)n(C)c3ccc(C#N)nc23)CC[C@@H]1Oc1ccnc(C(F)(F)F)c1` [Example 359, 8-((3S,4S)-3-ethoxy-4-((2-(trifluoromethyl)pyridin-4-yl)oxy)piperidin-1-yl)-5-methyl-6-oxo-5,6-dihydro-1,5-naphthyridine-2-carbonitrile], the EC50 turned out to be 20 µM.

Regarding `C[C@@H]1CN(c2nc(=O)n(C)c3ccc(C#N)nc23)[C@H](C)CC1Oc1cccc(C(F)(F)F)c1` (stereo partly drawn) [Example 257, 4-((2R,5R)-2,5-dimethyl-4-(3-(trifluoromethyl)phenoxy)piperidin-1-yl)-1-methyl-2-oxo-1,2-dihydropyrido[3,2-d]pyrimidine-6-carbonitrile], the EC50 was 0.8 µM.
